Several values for one entry are separate records, joined by “and”; a condition that tells them apart may be missing. Equal values may be shown once. Read-outs that look alike come from different tables or passages of the source.
What was measured:
C. elegans = C. elegans motor phenotype scoring on solid media (Punc/jerky-unc, coiled, paralyzed), wild-type young adults; type: in vivo, Caenorhabditis elegans; details: for EC50: Caenorhabditis elegans, any motor phenotype after 1 h on solid media, ± 95% CI, read-out: C. elegans - motor disruption EC50; for atypical locomotion (number of animals) / coiled (number of animals) / no phene (number of animals) / paralyzed (number of animals): young adults, 20 animals per trial, single technical replicate
rat VAChT = molecular target: T1, rat VAChT (Rattus norvegicus, UniProt Q62666); test: [3H]Vesamicol competitive radioligand binding, PC12 cells expressing ratVAChT
T1 construct: expressed in transfected cells; host or cells: rat PC12 (PC12 A123.7) cells, stably transfected; shared by Dr. Ali Roghani (Texas Tech University)
T1 sequence (Q62666 1-530): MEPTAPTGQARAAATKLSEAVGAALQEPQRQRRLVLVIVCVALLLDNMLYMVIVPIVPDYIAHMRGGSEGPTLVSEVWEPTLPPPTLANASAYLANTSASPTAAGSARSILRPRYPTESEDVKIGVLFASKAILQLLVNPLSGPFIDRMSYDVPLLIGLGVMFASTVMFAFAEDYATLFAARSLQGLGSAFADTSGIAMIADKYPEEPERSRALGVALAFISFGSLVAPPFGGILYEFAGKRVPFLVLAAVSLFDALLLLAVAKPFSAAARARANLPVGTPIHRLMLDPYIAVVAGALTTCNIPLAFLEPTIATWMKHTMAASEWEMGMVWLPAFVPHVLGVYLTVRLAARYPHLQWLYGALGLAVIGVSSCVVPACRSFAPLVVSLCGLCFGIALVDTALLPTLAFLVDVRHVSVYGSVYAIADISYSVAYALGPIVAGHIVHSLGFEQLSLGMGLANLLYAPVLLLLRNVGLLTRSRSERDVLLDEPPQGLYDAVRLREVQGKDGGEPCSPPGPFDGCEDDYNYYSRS

[1] = tested on: Dirofilaria immitis microfilariae; test: Dirofilaria immitis microfilariae immobility assay (DiroImager, 72 h); details: Dirofilaria immitis microfilariae
Procedure, shortened: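 Motility read after 72 h drug exposure with an image-based high-throughput plate imager, 1% DMSO medium serving as negative control. Missouri-isolate microfilariae, roughly 250 per well, freshly purified and cultured in supplemented RPMI 1640.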

[2] = tested on: Dirofilaria immitis L3/L4; test: Dirofilaria immitis L3/L4 motility assay (DiroImager, 72 h); details: Dirofilaria immitis L4
Pristionchus pacificus = Pristionchus pacificus motor disruption dose-response on solid media, 1 h; details: for mean % any phene (coiled, jerky-Unc or paralyzed): Pristionchus pacificus young adults; for mean % any phene (coiled, jerky-Unc or paralyzed) / mean % any phene: mean of three biological replicates; for EC50: Pristionchus pacificus, 1 h, read-out: P. pacificus motor disruption EC50; for rep 1 atypical locomotion / rep 1 coiled / rep 1 no phene / rep 1 paralyzed / rep 2 atypical locomotion / rep 2 coiled / rep 2 no phene / rep 2 paralyzed / rep 3 atypical locomotion / rep 3 coiled / rep 3 no phene / rep 3 paralyzed: count of 20 animals per trial, one hour; for mean % any phene: any phenotype (coiled, jerky-Unc or paralyzed) at one hour
[3] = 3.75uM, one hour, mean of three biological replicates, third c14 line of each analog
[4] = [3H]Vesamicol binding, PC12, experiment 1, read-out: expt 1 Ki (M) vs. rat VAChT (PC12)
[5] = [3H]Vesamicol binding, PC12, experiment 2, read-out: expt 2 Ki (M) vs. rat VAChT (PC12)
[6] = [3H]Vesamicol binding, rat VAChT (PC12), mean of 2-3 experiments, read-out: mean Ki
[7] = conc 3.75, observed at one hour

Clc1ccc(N2CCN(CC3CC4C=CC3C4)CC2)cc1 (stereo not drawn) [Nemacol-46]
any phene (mean % fraction of young adults exhibiting any phenotype: coiled, jerky-Unc or paralyzed) (C. elegans; [3]): 89.1667%
EC50 (C. elegans): 2.3 µM
Ki (rat VAChT; [4]): 9.16e-08 M
Ki (rat VAChT; [5]): 7.54e-08 M
Ki (rat VAChT; [6]): 8.35e-08 M
% effect (motility), DIROIM MF ([1]; 0.016 µM): 0%
% effect (motility), DIROIM MF ([1]; 0.08 µM): 0%
% effect (motility), DIROIM MF ([1]; 0.4 µM): 0%
% effect (motility), DIROIM MF ([1]; 2 µM): 0%
% effect (motility), DIROIM MF ([1]; 10 µM): 0%
% effect (motility), DIROIM L4 ([2]; 2 µM): 0%
% effect (motility), DIROIM L4 ([2]; 10 µM): 5%
% effect (motility), DIROIM L4 ([2]; 50 µM): 25%
mean % any phene (coiled, jerky-Unc or paralyzed) (Pristionchus pacificus; [7]): 41.6667%
mean % any phene (coiled, jerky-Unc or paralyzed) (Pristionchus pacificus; conc 15, observed at one hour): 58.3333%
mean % any phene (coiled, jerky-Unc or paralyzed) (Pristionchus pacificus; conc 60, observed at one hour): 84.1667%
EC50 (Pristionchus pacificus): 7 ± 2.4 µM
rep 1 atypical locomotion (Pristionchus pacificus; conc 3.75): 0
rep 1 coiled (Pristionchus pacificus; conc 3.75): 0
rep 1 no phene (Pristionchus pacificus; conc 3.75): 20
rep 1 paralyzed (Pristionchus pacificus; conc 3.75): 0
rep 2 atypical locomotion (Pristionchus pacificus; conc 3.75): 4
rep 2 coiled (Pristionchus pacificus; conc 3.75): 0
rep 2 no phene (Pristionchus pacificus; conc 3.75): 16
rep 2 paralyzed (Pristionchus pacificus; conc 3.75): 0
rep 1 atypical locomotion (Pristionchus pacificus; conc 15): 11
rep 1 coiled (Pristionchus pacificus; conc 15): 4
rep 1 no phene (Pristionchus pacificus; conc 15): 4
rep 1 paralyzed (Pristionchus pacificus; conc 15): 1
rep 2 atypical locomotion (Pristionchus pacificus; conc 15): 0
rep 2 coiled (Pristionchus pacificus; conc 15): 8
rep 2 no phene (Pristionchus pacificus; conc 15): 0
rep 2 paralyzed (Pristionchus pacificus; conc 15): 12
rep 1 atypical locomotion (Pristionchus pacificus; conc 60): 4
rep 1 coiled (Pristionchus pacificus; conc 60): 6
rep 1 no phene (Pristionchus pacificus; conc 60): 0
rep 1 paralyzed (Pristionchus pacificus; conc 60): 10
rep 2 atypical locomotion (Pristionchus pacificus; conc 60): 0
rep 2 coiled (Pristionchus pacificus; conc 60): 8
rep 2 no phene (Pristionchus pacificus; conc 60): 0
rep 2 paralyzed (Pristionchus pacificus; conc 60): 12

c1ccc(N2CCN(CC3CCCC3)CC2)cc1 [Nemacol-62]
atypical locomotion (number of animals) (C. elegans; 3.75uM, one hour): 0 and 2
coiled (number of animals) (C. elegans; 3.75uM, one hour): 0 and 1
no phene (number of animals) (C. elegans; 3.75uM, one hour): 20 and 17 and 18
paralyzed (number of animals) (C. elegans; 3.75uM, one hour): 0
any phene: mean % fraction of young adults exhibiting any phenotype (coiled, jerky-Unc or paralyzed) (C. elegans; 3.75uM, one hour, mean of three biological replicates): 4.167%
atypical locomotion (number of animals) (C. elegans; 15uM, one hour): 13 and 10 and 6 and 17
coiled (number of animals) (C. elegans; 15uM, one hour): 0 and 1 and 4 and 3
no phene (number of animals) (C. elegans; 15uM, one hour): 5 and 8 and 13 and 10 and 0
paralyzed (number of animals) (C. elegans; 15uM, one hour): 2 and 0 and 4
atypical locomotion (number of animals) (C. elegans; 60uM, one hour): 0 and 4 and 2 and 1
coiled (number of animals) (C. elegans; 60uM, one hour): 12 and 8 and 15 and 17 and 7 and 5
no phene (number of animals) (C. elegans; 60uM, one hour): 0
paralyzed (number of animals) (C. elegans; 60uM, one hour): 8 and 3 and 2 and 9 and 14
EC50 (C. elegans): 11.2 ± 4.4 µM
Ki (rat VAChT; [4]): 2.34e-06 M
Ki (rat VAChT; [5]): 3.34e-06 M
Ki (rat VAChT; [6]): 2.84e-06 M
Ki (rat VAChT; [3H]Vesamicol displacement, mean, read-out: ratVAChT Ki): 2.84e-06 M
% effect (motility), DIROIM MF ([1]; 0.016 µM): 0%
% effect (motility), DIROIM MF ([1]; 0.08 µM): 0%
% effect (motility), DIROIM MF ([1]; 0.4 µM): 0%
% effect (motility), DIROIM MF ([1]; 2 µM): 0%
% effect (motility), DIROIM MF ([1]; 10 µM): 0%
% effect (motility), DIROIM L4 ([2]; 10 µM): 5%
% effect (motility), DIROIM L4 ([2]; 50 µM): 11%
EC50 (Pristionchus pacificus): 35.2 ± 7.5 µM
mean % any phene (Pristionchus pacificus; conc 3.75): 0%
rep 1 atypical locomotion (Pristionchus pacificus; conc 3.75): 0
rep 1 coiled (Pristionchus pacificus; conc 3.75): 0
rep 1 no phene (Pristionchus pacificus; conc 3.75): 20
rep 1 paralyzed (Pristionchus pacificus; conc 3.75): 0
rep 2 atypical locomotion (Pristionchus pacificus; conc 3.75): 0
rep 2 coiled (Pristionchus pacificus; conc 3.75): 0
rep 2 no phene (Pristionchus pacificus; conc 3.75): 20
rep 2 paralyzed (Pristionchus pacificus; conc 3.75): 0
rep 3 atypical locomotion (Pristionchus pacificus; conc 3.75): 0
rep 3 coiled (Pristionchus pacificus; conc 3.75): 0
rep 3 no phene (Pristionchus pacificus; conc 3.75): 20
rep 3 paralyzed (Pristionchus pacificus; conc 3.75): 0
mean % any phene (Pristionchus pacificus; conc 15): 3.333%
rep 1 coiled (Pristionchus pacificus; conc 15): 0
rep 1 no phene (Pristionchus pacificus; conc 15): 20 and 19
rep 1 paralyzed (Pristionchus pacificus; conc 15): 0
rep 2 atypical locomotion (Pristionchus pacificus; conc 15): 2 and 1
rep 2 coiled (Pristionchus pacificus; conc 15): 0
rep 2 no phene (Pristionchus pacificus; conc 15): 18 and 19
rep 2 paralyzed (Pristionchus pacificus; conc 15): 0
rep 3 atypical locomotion (Pristionchus pacificus; conc 15): 0
rep 3 coiled (Pristionchus pacificus; conc 15): 0
rep 3 no phene (Pristionchus pacificus; conc 15): 20
rep 3 paralyzed (Pristionchus pacificus; conc 15): 0
mean % any phene (Pristionchus pacificus; conc 60): 89.1667%
rep 1 atypical locomotion (Pristionchus pacificus; conc 60): 5 and 6
rep 1 paralyzed (Pristionchus pacificus; conc 60): 11 and 9
rep 2 atypical locomotion (Pristionchus pacificus; conc 60): 14 and 15
rep 2 coiled (Pristionchus pacificus; conc 60): 2 and 3
rep 2 no phene (Pristionchus pacificus; conc 60): 0
rep 2 paralyzed (Pristionchus pacificus; conc 60): 4 and 2
rep 3 atypical locomotion (Pristionchus pacificus; conc 60): 15 and 13
rep 3 no phene (Pristionchus pacificus; conc 60): 5 and 3

Cc1ccc(N2CCN(C3CCC(C)C3)CC2)cc1 (stereo not drawn) [Nemacol-41]
any phene (mean % fraction of young adults exhibiting any phenotype: coiled, jerky-Unc or paralyzed) (C. elegans; [3]): 58.3333%
any phene (mean % fraction of young adults exhibiting any phenotype: coiled, jerky-Unc or paralyzed) (C. elegans; 15uM, one hour, mean of three biological replicates, second c14 line of each analog): 98.3333%
any phene (mean % fraction of young adults exhibiting any phenotype: coiled, jerky-Unc or paralyzed) (C. elegans; 60uM, one hour, mean of three biological replicates, first c14 line of each analog): 100%
EC50 (C. elegans): 3.3 ± 1.4 µM
Ki (rat VAChT; [4]): 4.82e-07 M
Ki (rat VAChT; [5]): 3.76e-07 M
Ki (rat VAChT; [6]): 4.29e-07 M
% effect (motility), DIROIM MF ([1]; 0.016 µM): 0%
% effect (motility), DIROIM MF ([1]; 0.08 µM): 0%
% effect (motility), DIROIM MF ([1]; 0.4 µM): 0%
% effect (motility), DIROIM MF ([1]; 2 µM): 0%
% effect (motility), DIROIM MF ([1]; 10 µM): 0%
% effect (motility), DIROIM L4 ([2]; 2 µM): 5%
% effect (motility), DIROIM L4 ([2]; 10 µM): 5%
% effect (motility), DIROIM L4 ([2]; 50 µM): 20%
mean % any phene (coiled, jerky-Unc or paralyzed) (Pristionchus pacificus; [7]): 9.167%
mean % any phene (coiled, jerky-Unc or paralyzed) (Pristionchus pacificus; conc 15, observed at one hour): 67.5%
mean % any phene (coiled, jerky-Unc or paralyzed) (Pristionchus pacificus; conc 60, observed at one hour): 100%
EC50 (Pristionchus pacificus): 10.7 ± 1.2 µM
